A short description of experiment [1]: Titration of artificial dentinal fluid, aggregation measured by absorbance. The format is physicochemical. Conditions: pH of 8.5 and above. As for the experimental part: In order to determine the conditions that promote intrinsic plug formation, we performed the following experiments. We prepared a solution comprised of the ions present in dentinal fluid (which acted as artificial dentinal fluid) and progressively added (titrated) various solutions thereto to determine the conditions and substances conducive to the formation of aggregates (i.e., dentinal plugs). Aggregation was determined by means of measurement of the absorbance with a spectrophotometer.

A short description of experiment [2]: Hydraulic conductance of dentine discs (Greenhill and Pashley device), simulation of dentinal tubule plugging. Conditions: for Hydraulic conductance, effect in words: summary of Table 1. From the text: A device developed by Greenhill and Pashley (J. Dental Research, 60:686-698, 1981) that enables simulation of dentinal tubule plugging in vivo was used to assess the effectiveness of the invention. Dentine discs that varied in thickness from 0.6 to 0.8 mm were cut with a Buhler Isomet saw from extracted caries-free molar teeth. They were then etched with 6% citric acid for two minutes to remove the smear layer and stored in 70% ethanol until used. A disc was mounted in the chamber of the apparatus with occlusal side facing upwards. The occlusal side is determined by passing light through a plastic grid beneath the section and observing the section with a dissecting microscope. The tubules appear further apart with the occlusal side up because of the lower tubular density of the dentine occlusally (Walton et al., J. Dental Research 55:639-642, 1976). Hydraulic conductance of fluid through the discs was determined as described by Greenhill and Pashley, supra.
Fluid containing levels of ions present in serum (Merck Manual, 1972) was used to perfuse the disc. Their concentrations in mM were as follows: Na-140.5, K-4.31, Ca-2.5, Mg-1.0, P-1.3. The pH of this solution is raised to 7.0 with sodium hydroxide. The solution was filtered through a […] (Millipore Corp., Marlborough, Mass. 01752) prior to use to remove any bacteria present. This solution is called artificial ionic dentinal fluid (AIDF). Hydrostatic pressure was created by a fluid reservoir leading via a glass capillary tube into the pulpal side of the chamber at a level 30 cm above that of the surface of the horizontally positioned disc. The distance traveled by an air bubble positioned in the AIDF in the capillary tubing between this pressure head and the pulpal side of the disc in a fixed period of time was converted to hydraulic conductance values in ml cm^−1 min^−1 cm H20^−1.
First, […] of AIDF was applied to the upward facing occlusal side of the section and AIDF was allowed to flow through the disc from the pulpal side for a period of five minutes. The distance that the air bubble moved inside the capillary on the pulpal side of the chamber was measured so that the rate of fluid movement through the disc could be calculated and converted to hydraulic conductance values. This procedure was repeated two more times or until a uniform flow rate was achieved on three consecutive runs. […] Next, the mixture was removed with a pipette, washed three times with 400 μl of deionized water and replaced with AIDF. The AIDF was allowed to flow through the dentine slice and hydraulic conductance readings were made at selected times up to 90 minutes.

The structures appear in SMILES notation.

Consider `[Na+].[OH-]` [sodium hydroxide], for which the “Aggregation (deposit formation) of dentinal fluid constituents” value (from here on “Aggregation (deposit formation)”) in experiment [1] is “nor could one induce deposition”.

With `O=C([O-])O.[Na+]` [sodium bicarbonate], the “Percent Reduction in Hydraulic Conductance” value (from here on “Percent Reduction”) is 0% in experiment [2] (0 minutes after exposure); −10.6% in experiment [2] (15 minutes after exposure); −1.0% in experiment [2] (30 minutes after exposure); 7.2% in experiment [2] (45 minutes after exposure); 11.5% in experiment [2] (60 minutes after exposure); 15.9% in experiment [2] (75 minutes after exposure). The “Percent Reduction” value in experiment [2] (90 minutes after exposure) was 19.7%. The “Aggregation (deposit formation)” value in experiment [1] was “nor could one induce deposition”.

With `N=C(N)NCCC[C@H](N)C(=O)O.O=C(O)O` [arginine bicarbonate], the “Percent Reduction” value in experiment [2] (0 minutes after exposure) is on record as 0%; in experiment [2] (15 minutes after exposure), 11.7%; in experiment [2] (30 minutes after exposure), 15.6%; in experiment [2] (45 minutes after exposure), 14.4%; in experiment [2] (60 minutes after exposure), 14.5%; in experiment [2] (75 minutes after exposure), 16.1%. Besides, the “Percent Reduction” value in experiment [2] (90 minutes after exposure) is on record as 16.1%. In addition, in experiment [2], the “Hydraulic conductance, effect in words” value is recorded as “much smaller effects”. Also, in experiment [1], the “Aggregation (deposit formation)” value is “aggregation of dentinal fluid constituents occurred”.

For `O=C([O-])[O-].[Ca+2]` [calcium carbonate], the “Percent Reduction” value is given as 0% in experiment [2] (0 minutes after exposure); −18.5% in experiment [2] (15 minutes after exposure); −12.3% in experiment [2] (30 minutes after exposure); −5.5% in experiment [2] (45 minutes after exposure); −4.1% in experiment [2] (60 minutes after exposure); 5.5% in experiment [2] (75 minutes after exposure). The “Percent Reduction” value in experiment [2] (90 minutes after exposure) is 5.5%. For the same compound, in experiment [2], the “Hydraulic conductance, effect in words” value is “much smaller effects”. Besides, the “Aggregation (deposit formation)” value in experiment [1] was “not sufficient to produce deposit formation”.

Source of the values: patent US20160279042A1, “Dental Anti-Hypersensitivity Composition and Method” (The Research Foundation for the State University of New York, priority 1999, published 2016).
